These results are taken from ChEMBL document CHEMBL3864136, “A monocyclic neodysiherbaine analog: Synthesis and evaluation” (Bioorg Med Chem Lett, 2016).

The target of assay [1] is Glutamate receptor ionotropic, kainate 2 (Homo sapiens, UniProt Q13002). The assay is described as follows: Displacement of [3H]kianic acid from recombinant GluK2 kainate receptor (unknown origin) expressed in HEK293 cell membranes measured after 1 hr. Background: Displacement assays read how much labelled ligand stays bound in the presence of the test substance.
Assay [2] deals with Glutamate receptor ionotropic, kainate 1 (Homo sapiens, UniProt P39086). Description: Displacement of [3H]kianic acid from recombinant GluK1 kainate receptor (unknown origin) expressed in HEK293 cell membranes measured after 1 hr.

Each structure is given as a SMILES string.

Sequence of Glutamate receptor ionotropic, kainate 1 (P39086 whole entry): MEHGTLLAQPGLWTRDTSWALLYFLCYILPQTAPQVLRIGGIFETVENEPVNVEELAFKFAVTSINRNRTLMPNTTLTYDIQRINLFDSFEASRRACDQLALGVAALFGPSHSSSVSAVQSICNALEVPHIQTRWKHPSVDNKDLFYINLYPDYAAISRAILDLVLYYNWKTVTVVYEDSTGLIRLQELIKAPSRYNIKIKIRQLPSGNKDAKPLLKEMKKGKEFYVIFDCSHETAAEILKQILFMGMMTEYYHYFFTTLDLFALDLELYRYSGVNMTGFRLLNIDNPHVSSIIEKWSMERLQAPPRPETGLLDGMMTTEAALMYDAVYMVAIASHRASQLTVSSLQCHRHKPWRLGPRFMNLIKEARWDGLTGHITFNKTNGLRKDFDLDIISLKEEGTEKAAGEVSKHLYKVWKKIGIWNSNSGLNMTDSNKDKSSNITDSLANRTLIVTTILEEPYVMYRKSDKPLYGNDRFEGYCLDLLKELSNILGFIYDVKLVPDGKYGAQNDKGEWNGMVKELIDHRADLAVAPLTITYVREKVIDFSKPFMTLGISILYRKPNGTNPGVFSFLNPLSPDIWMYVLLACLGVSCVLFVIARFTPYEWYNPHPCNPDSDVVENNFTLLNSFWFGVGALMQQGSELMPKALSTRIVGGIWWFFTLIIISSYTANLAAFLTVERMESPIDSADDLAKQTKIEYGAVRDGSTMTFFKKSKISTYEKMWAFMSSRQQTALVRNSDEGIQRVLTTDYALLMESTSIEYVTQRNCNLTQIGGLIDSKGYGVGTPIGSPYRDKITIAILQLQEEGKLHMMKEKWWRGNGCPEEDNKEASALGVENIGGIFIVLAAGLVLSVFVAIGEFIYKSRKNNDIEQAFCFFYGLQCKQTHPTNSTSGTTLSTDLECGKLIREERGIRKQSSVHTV
Sequence of Glutamate receptor ionotropic, kainate 2 (Q13002 whole entry): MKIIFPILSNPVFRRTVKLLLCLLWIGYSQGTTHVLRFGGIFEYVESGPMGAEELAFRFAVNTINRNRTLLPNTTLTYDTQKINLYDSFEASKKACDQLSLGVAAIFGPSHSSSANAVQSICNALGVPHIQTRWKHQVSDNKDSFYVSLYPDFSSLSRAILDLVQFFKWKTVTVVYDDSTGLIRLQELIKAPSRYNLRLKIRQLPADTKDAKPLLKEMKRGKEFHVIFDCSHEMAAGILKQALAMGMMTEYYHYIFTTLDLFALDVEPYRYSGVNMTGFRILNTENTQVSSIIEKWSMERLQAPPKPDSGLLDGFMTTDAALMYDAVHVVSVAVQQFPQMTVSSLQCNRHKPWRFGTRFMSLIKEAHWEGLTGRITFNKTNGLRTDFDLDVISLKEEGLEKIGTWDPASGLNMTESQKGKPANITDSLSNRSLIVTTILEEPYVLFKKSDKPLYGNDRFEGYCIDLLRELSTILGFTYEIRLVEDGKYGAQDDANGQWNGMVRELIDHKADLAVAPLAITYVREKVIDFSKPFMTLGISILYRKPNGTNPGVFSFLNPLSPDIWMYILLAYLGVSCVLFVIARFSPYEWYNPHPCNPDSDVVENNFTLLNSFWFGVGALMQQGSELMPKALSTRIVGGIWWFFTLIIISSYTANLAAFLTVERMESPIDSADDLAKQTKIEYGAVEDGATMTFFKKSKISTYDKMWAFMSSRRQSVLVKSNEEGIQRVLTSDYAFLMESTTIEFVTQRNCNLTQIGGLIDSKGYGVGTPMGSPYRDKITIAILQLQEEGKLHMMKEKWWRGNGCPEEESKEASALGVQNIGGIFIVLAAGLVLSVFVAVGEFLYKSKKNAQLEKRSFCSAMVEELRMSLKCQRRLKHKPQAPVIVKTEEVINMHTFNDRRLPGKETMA

For orientation: Ki means a measure of affinity in units of concentration, obtained from inhibition or displacement. As for `CN[C@H]1[C@H]2O[C@@](C[C@H](N)C(=O)O)(C(=O)O)C[C@H]2OC[C@H]1O` [DYSIHERBAINE], the results for the Ki in assay [1] and in assay [2] were 1.2 nM and 0.74 nM, respectively.
